Laboratory results reported in patent EP2084165B1, “POSITIVELY CHARGED WATER-SOLUBLE PRODRUGS OF OXICAMS AND RELATED COMPOUNDS WITH VERY HIGH SKIN PENETRATION RATE” (Techfields Biochem Co. Ltd, priority 2006, dated 2008).
Counter-ions that a name gives are not always drawn. Like-named read-outs stand apart in the source and are kept apart here.

Experiments:
Rats = assay: Antipyretic activity: rats given sterilized E. coli suspension as pyrogen; assay type: in vivo; settings: 25 mg/kg transdermally 2 hours after E. coli pyrogen, in °C (unit assumed)
Description: Antipyretic activity: Rats received a sterilized E. coli suspension as a pyrogen. […] The body temperature of the rats was taken at 90 min. intervals before and after the administration of the test compounds.

Solubility in water = settings: for solubility: water, solubility in water
mice [1] = assay: Analgesic activity: acetic acid writhing test in mice; assay type: in vivo; settings: for No. of Writhings: 50 mg/kg transdermally 60 minutes before acetic acid solution intraperitoneally, control group 35.0; for Rate of Inhibition (%): 50 mg/kg transdermally 60 minutes before acetic acid solution, based on the control group
Description: The number of writhings that occurred when mice were administered an acetic acid solution intraperitoneally were counted, and the rate of inhibition based on the control group was calculated. […] The group A is the control group.

in vivo = settings: mouse, topical or ocular
Description: The donor consisted of a 20% solution of these compounds in 1 mL of isopropanol applied to a 10 cm^2 on the backs of the hairless mice. Plasma levels of drugs were determined by a specific high-performance liquid chromatography method.

[2] = Acute toxicity, LD50 orally in mice; assay type: in vivo; settings: mouse, in vivo
Source text: (§1) The acute toxicity of the prodrugs was investigated. […].

mice [3] = assay: Acute toxicity, LD50 orally in mice; assay type: in vivo; settings: oral, mice
Source text: as §1

[4] = prodrug versus the drug itself (testosterone); cited from earlier work
[5] = oral, mice, read-out: LD50 orally in mice

Compound	body temperature of the rats, t = 0 min. (Rats)	body temperature of the rats, t = 90 min. (Rats)	body temperature of the rats, t = 180 min. (Rats)	body temperature of the rats, t = 270 min. (Rats)	No. of Writhings (mice [1])	Rate of Inhibition (%) (mice [1])	Cmax (in vivo)	Tmax (in vivo)	LD50 ([2]; po)	solubility (Solubility in water)	other results
CN(C)CCCC(=O)OC1=C(C(=O)Nc2ccccn2)N(C)S(=O)(=O)c2ccccc21 [B, 4-N,N-dimethylaminobutyryloxy-2-methyl-N-2-pyridinyl-2H,1,2-benzothiazine-3-carb oxamide 1,1-dioxide.HCl]	37.57±0.06	36.51±0.05	36.40±0.06	36.45±0.07	15.6	55%	–	–	–	–	solubility in water (Solubility in water): 250 mg/mL
CN(C)CCCC(=O)OC1=C(C(=O)Nc2ccccn2)N(C)S(=O)(=O)c2ccccc21	–	–	–	–	–	–	~500 µg/mL	~50 min	550 mg/kg	> 300 mg/mL	–
4- N,N-dimethylaminobutyryloxy - 2-methyl-N-[5-Methyl-3-isoxolyl-2H-1,2-benzothiazine-3-carboxamide 1,1-dioxide] .HCl [G]	37.52±0.06	36.62±0.07	36.53±0.06	36.60±0.05	15.8	55%	–	–	–	–	peak plasma levels (in vivo): ~0.5 mg/mL; time until peak plasma levels were reached after application of the donor systems (in vivo): ~50 min; LD50 orally in mice (mice [3]): 570 mg/kg
CN(C)CCCC(=O)OC1=C(C(=O)Nc2nccs2)N(C)S(=O)(=O)c2ccccc21	–	–	–	–	–	–	–	~50 min	670 mg/kg	–	–
CN(C)CCCC(=O)OC(Nc1ccccn1)=C1C(=O)c2sc(Cl)cc2S(=O)(=O)N1C.Cl [F, 8-chloro-(4-N,N-dimethylaminobutyryloxy-pyridine-2-ylamino-methylidene)-3-methy 1-2,2-dioxo-2λ^6'7-dithia-3-azabicyclo[4,3,0]nona-8,10-dien-5-one.HCl]	37.53±0.05	36.57±0.05	36.52±0.07	36.51±0.06	17.5	50%	–	–	–	–	–
Cc1cnc(NC(=O)C2=C(OC(=O)CCCN(C)C)c3ccccc3S(=O)(=O)N2C)s1 [H, 4-N,N-dimethylaminobutyryloxy-2-methyl-N-(5-methyl-2-thiazolyl)-2H-1,2-benzothiazine-3-carboxamide-1,1-dioxide.HCl]	37.57±0.07	36.53±0.08	36.52±0.08	36.50±0.07	18.2	48%	~500 µg/mL	–	–	–	LD50 [2, 5]: 590 mg/kg
CN(C)CCCC(=O)OC1=C(C(=O)Nc2ccccn2)N(C)S(=O)(=O)c2cc(Cl)sc21	–	–	–	–	–	–	~500 µg/mL	~50 min	580 mg/kg	> 300 mg/mL	–
CN(C)CCCC(=O)OC(Nc1ccccn1)=C1C(=O)c2sc(Cl)cc2S(=O)(=O)N1C	–	–	–	–	–	–	~500 µg/mL	~50 min	610 mg/kg	> 300 mg/mL	–
CN1C(C(=O)Nc2ccccn2)=C(O)c2ccccc2S1(=O)=O [Piroxicam, reference compound]	–	–	–	–	–	–	~5 µg/mL	–	–	–	LD50 [2, 5]: 360 mg/kg
CN(C)CCCC(=O)O[C@H]1CC[C@H]2[C@@H]3CCC4=CC(=O)CC[C@]4(C)[C@H]3CC[C@]12C.Cl [TSBH, testosteronyl-4-dimethylaminobutyrate.HCl]	–	–	–	–	–	–	–	–	–	–	diffuses through human skin faster than does the drug itself [4]: ~ 60 times
CN1C(C(=O)Nc2nccs2)=C(O)c2ccccc2S1(=O)=O [sudoxiam, reference compound]	–	–	–	–	–	–	–	–	–	–	peak plasma levels (in vivo): ~0.005 mg/mL
CN(C)CCCC(=O)OC1=C(C(=O)Nc2ccccn2)N(C)S(=O)(=O)c2cc(Cl)sc21 [Compound D, 6-chloro-4-N,N-dimethylaminobutyryloxy-2-methyl-N-2-pyridinyl-2H-thieno[2,3-e]-1 ,2-thiazine-3-carboxamide 1,1-dioxide.HCl]	37.55±0.05	36.66±0.06	36.60±0.06	36.61±0.07	16.5	53%	–	–	–	–	solubility in water (Solubility in water): 250 mg/mL
CN(C)CCCC(=O)OC1=C(C(=O)Nc2ccccn2)N(C)S(=O)(=O)c2ccsc21	–	–	–	–	–	–	~500 µg/mL	~50 min	500 mg/kg	> 300 mg/mL	–
CN(C)CCCC(=O)OC1=C(C(=O)Nc2ccccn2)N(C)S(=O)(=O)c2ccsc21 [E, 4-N,N-dimethylaminobutyryloxy-2-methyl-N-2-pyridinyl-2H-thieno[2,3-e]-1,2-thiazine-3-carboxamide 1,1-dioxide.HCl]	37.54±0.06	36.61±0.06	36.58±0.08	36.55±0.05	16.9	53%	–	–	–	–	solubility in water (Solubility in water): 250 mg/mL
Cc1cnc(NC(=O)C2=C(OC(=O)CCCN(C)C)c3ccccc3S(=O)(=O)N2C)s1.Cl	–	–	–	–	–	–	–	–	–	–	time until peak plasma levels were reached after application of the donor systems (in vivo): ~50 min
CN(C)CCCC(=O)OC1=C(C(=O)Nc2nccs2)N(C)S(=O)(=O)c2ccccc21 [C, N-(2-thiazoyl)-4-N,N-dimethylaminobutyryloxy-2-methyl-2H,1,2-benzothiazine-3-carbo xamide 1,1-dioxide.HCl]	37.50±0.07	36.61±0.04	36.50±0.07	36.60±0.05	15.7	55%	~500 µg/mL	–	–	> 300 mg/mL	solubility in water (Solubility in water; listed as N-(2-thiazolyl)-4-N,N-dimethylaminobutyryloxy-2-methyl-2H,1,2-benzothiazine-3-ca): 250 mg/mL
